Active and inactive are the calls of the source. The rule behind the calls is not given here.
How the values were obtained:
Entamoeba histolytica [1] = assay: Antiprotozoal activity against Entamoeba histolytica HM-1:IMSS trophozoites after 72 hrs by microdilution method; type: functional, organism-based
Plasmodium falciparum [2] = assay: Antimicrobial activity against erythrocytic stage of chloroquine-resistant Plasmodium falciparum W2 infected in human erythrocytes assessed as [3H]hypoxanthine incorporation at 1 ug/ml after 24 hrs by beta-radiation counting analysis; type: functional
[3] = Cytotoxicity against BALB/c mouse splenocytes assessed as [3H]-thymidine incorporation after 24 hrs by beta-radiation counting analysis relative to control; type: cell-based; conditions: Splenocyte
Plasmodium falciparum [4] = assay: Antimicrobial activity against erythrocytic stage of chloroquine-resistant Plasmodium falciparum W2 infected in human erythrocytes assessed as [3H]hypoxanthine incorporation after 24 hrs by beta-radiation counting analysis; type: functional, organism-based
[5] = Cytotoxicity against human erythrocytes assessed as hemolysis at 25 uM after 1 hr by spectrophotometry; type: cell-based; conditions: erythrocyte
[6] = Inhibition of beta-hematin formation at 2.5 mM after 24 hrs by spectrophotometry; type: physicochemical; conditions: 2500 µM
[7] = Selectivity index, ratio of IC50 for BALB/c mouse splenocytes to IC50 for Entamoeba histolytica HM-1:IMSS trophozoites
Entamoeba histolytica [8] = assay: Ratio of metronidazole IC50 to compound IC50 for Entamoeba histolytica HM-1:IMSS trophozoites; type: functional
Plasmodium falciparum [9] = assay: Antimicrobial activity against ring stage chloroquine-resistant Plasmodium falciparum W2 infected in human erythrocytes assessed as inhibition of schizont stage parasite growth at 0.5 to 1 uM after 48 hrs by light microscopy; type: functional, organism-based
[10] = Plasmodium falciparum, W2, read-out: IC50

Work on `COc1ccc(/C=N/NC(=O)CCN2CCN(c3ccnc4cc(Cl)ccc34)CC2)cc1OC` yielded an IC50 (Entamoeba histolytica [1]) of 11.6 µM and an inhibition at 1 µg/mL (Plasmodium falciparum [2]) of 98.4%.
In the case of `O[C@@H](c1cc(C(F)(F)F)nc2c(C(F)(F)F)cccc12)[C@H]1CCCCN1` (relative stereo) [(S,R)-MEFLOQUINE], the IC50 [3] is reported as 9.5 µM and the IC50 (Plasmodium falciparum [4]; [10]) is reported as 0.04 µM.
For `CC(C)c1ccc(/C=N/NC(=O)CCN2CCN(c3ccnc4cc(Cl)ccc34)CC2)cc1`, the IC50 (Entamoeba histolytica [1]) was 17.1 µM, the inhibition at 1 µg/mL (Plasmodium falciparum [2]) was 97.5% and the Activity [5] was “Non-toxic”. The IC50 [3] was 7.9 µM, the IC50 (Plasmodium falciparum [4]; [10]) was 1.7 µM and the “inhibition (INH)” value [6] was 94%.
For `O=C(CCN1CCN(c2ccnc3cc(Cl)ccc23)CC1)N/N=C/c1ccc([N+](=O)[O-])cc1`, the IC50 (Entamoeba histolytica [1]) was 0.95 µM, the inhibition at 1 µg/mL (Plasmodium falciparum [2]) was 38.4% and the IC50 [3] was 12.1 µM.
In the case of `COc1cc(/C=N/NC(=O)CCN2CCN(c3ccnc4cc(Cl)ccc34)CC2)ccc1O`, the IC50 (Entamoeba histolytica [1]) is reported as 21.3 µM, the inhibition at 1 µg/mL (Plasmodium falciparum [2]) is reported as 99.1% and the Activity [5] is reported as “Non-toxic”. For the same molecule, the IC50 [3] was 9.4 µM, the IC50 (Plasmodium falciparum [4]; [10]) was 2.1 µM and the “inhibition (INH)” value [6] was 50.7%.
In the case of `COc1cc(/C=N/NC(=O)CCN2CCN(c3ccnc4cc(Cl)ccc34)CC2)ccc1OC(C)=O`, the “Ratio IC50” value [7] is reported as 121, the IC50 (Entamoeba histolytica [1]) is reported as 0.13 µM and the inhibition at 1 µg/mL (Plasmodium falciparum [2]) is reported as 0%. The IC50 [3] was 15.8 µM and the “Ratio IC50” value (Entamoeba histolytica [8]) was 10.
With `O=C(CCN1CCN(c2ccnc3cc(Cl)ccc23)CC1)N/N=C/c1ccccc1O` the IC50 (Entamoeba histolytica [1]) was 25.6 µM, the inhibition at 1 µg/mL (Plasmodium falciparum [2]) was 98.9% and the Activity [5] was “Non-toxic”. For the same molecule, the IC50 [3] was 11.5 µM, the Activity (Plasmodium falciparum [9]) was “Active” and the IC50 (Plasmodium falciparum [4]; [10]) was 0.33 µM. For the same molecule, the “inhibition (INH)” value [6] was 83.2%.
In the case of `COc1cc(/C=N/NC(=O)CCN2CCN(c3ccnc4cc(Cl)ccc34)CC2)ccc1OC(C)C`, the IC50 (Entamoeba histolytica [1]) is reported as 15.5 µM, the inhibition at 1 µg/mL (Plasmodium falciparum [2]) is reported as 98.6% and the Activity [5] is reported as “Non-toxic”. The IC50 [3] was 8.8 µM, the IC50 (Plasmodium falciparum [4]; [10]) was 4.5 µM and the “inhibition (INH)” value [6] was 15.7%.
With `CN(C)c1ccc(/C=N/NC(=O)CCN2CCN(c3ccnc4cc(Cl)ccc34)CC2)cc1` the IC50 (Entamoeba histolytica [1]) was 15.2 µM, the inhibition at 1 µg/mL (Plasmodium falciparum [2]) was 98% and the Activity [5] was “Non-toxic”. For the same molecule, the IC50 [3] was > 100 µM, the IC50 (Plasmodium falciparum [4]; [10]) was 1.3 µM and the “inhibition (INH)” value [6] was 94.2%.
In the case of `CCOC(=O)COc1ccc(/C=N/NC(=O)CCN2CCN(c3ccnc4cc(Cl)ccc34)CC2)cc1OC`, the IC50 (Entamoeba histolytica [1]) is reported as > 100 µM and the inhibition at 1 µg/mL (Plasmodium falciparum [2]) is reported as 71.7%.
With `CCOc1ccccc1/C=N/NC(=O)CCN1CCN(c2ccnc3cc(Cl)ccc23)CC1` the IC50 (Entamoeba histolytica [1]) was > 100 µM and the inhibition at 1 µg/mL (Plasmodium falciparum [2]) was 28.1%.
With `O=C(CCN1CCN(c2ccnc3cc(Cl)ccc23)CC1)N/N=C/c1ccccc1Cl` the IC50 (Entamoeba histolytica [1]) was 12.3 µM, the inhibition at 1 µg/mL (Plasmodium falciparum [2]) was 97.9% and the Activity [5] was “Non-toxic”. The IC50 [3] was 10.8 µM, the IC50 (Plasmodium falciparum [4]; [10]) was 0.78 µM and the “inhibition (INH)” value [6] was 87.3%.
For `O=C(CCN1CCN(c2ccnc3cc(Cl)ccc23)CC1)N/N=C/c1c[nH]c2ccccc12`, the IC50 (Entamoeba histolytica [1]) was 9.6 µM, the inhibition at 1 µg/mL (Plasmodium falciparum [2]) was 81.5% and the Activity [5] was “Non-toxic”. The IC50 [3] was 5.7 µM, the IC50 (Plasmodium falciparum [4]; [10]) was 3.3 µM and the “inhibition (INH)” value [6] was 43.3%.
With `CCc1ccc(/C=N/NC(=O)CCN2CCN(c3ccnc4cc(Cl)ccc34)CC2)cc1` the IC50 (Entamoeba histolytica [1]) was 11.1 µM and the inhibition at 1 µg/mL (Plasmodium falciparum [2]) was 97.8%.
For `O=C(CCN1CCN(c2ccnc3cc(Cl)ccc23)CC1)N/N=C/c1ccccn1`, the IC50 (Entamoeba histolytica [1]) was > 100 µM and the inhibition at 1 µg/mL (Plasmodium falciparum [2]) was 0%.
Work on `O=C(CCN1CCN(c2ccnc3cc(Cl)ccc23)CC1)N/N=C/c1cccc([N+](=O)[O-])c1` yielded an IC50 (Entamoeba histolytica [1]) of 12.6 µM and an inhibition at 1 µg/mL (Plasmodium falciparum [2]) of 19.9%.
In the case of `CCN(CC)CCCC(C)Nc1ccnc2cc(Cl)ccc12` (configuration not stated) [CHLOROQUINE], the “inhibition (INH)” value [6] is reported as 87.1%.
Molecule `O=C(CCN1CCN(c2ccnc3cc(Cl)ccc23)CC1)N/N=C/c1ccc(Cl)cc1` has an IC50 (Entamoeba histolytica [1]) of 87.2 µM, an inhibition at 1 µg/mL (Plasmodium falciparum [2]) of 98.4% and an IC50 [3] of 0.2 µM. For the same molecule, the IC50 (Plasmodium falciparum [4]; [10]) was 1.4 µM.
`Cc1ncc([N+](=O)[O-])n1CCO` [METRONIDAZOLE] gave an IC50 (Entamoeba histolytica [1]) of 1.5 µM and an IC50 [3] of 5.4 µM.
With `NNC(=O)CCN1CCN(c2ccnc3cc(Cl)ccc23)CC1` the inhibition at 1 µg/mL (Plasmodium falciparum [2]) was 74.1%, the IC50 [3] was > 100 µM and the IC50 (Plasmodium falciparum [4]; [10]) was 41.7 µM. For the same molecule, the “inhibition (INH)” value [6] was 21.7%.
With `O=C(CCN1CCN(c2ccnc3cc(Cl)ccc23)CC1)N/N=C/c1ccccc1C(F)(F)F` the IC50 (Entamoeba histolytica [1]) was 8.1 µM and the inhibition at 1 µg/mL (Plasmodium falciparum [2]) was 59.6%.
`O=C(CCN1CCN(c2ccnc3cc(Cl)ccc23)CC1)N/N=C/c1ccccc1[N+](=O)[O-]` showed an IC50 (Entamoeba histolytica [1]) of 11.3 µM and an inhibition at 1 µg/mL (Plasmodium falciparum [2]) of 73.1%.
For `CC(C)Oc1ccc(/C=N/NC(=O)CCN2CCN(c3ccnc4cc(Cl)ccc34)CC2)cc1`, the IC50 (Entamoeba histolytica [1]) was 5.3 µM, the inhibition at 1 µg/mL (Plasmodium falciparum [2]) was 98% and the IC50 [3] was 3.6 µM. The IC50 (Plasmodium falciparum [4]; [10]) was 0.8 µM.
For `COc1cc(/C=N/NC(=O)CCN2CCN(c3ccnc4cc(Cl)ccc34)CC2)cc(Br)c1O`, the IC50 (Entamoeba histolytica [1]) was 20.5 µM, the inhibition at 1 µg/mL (Plasmodium falciparum [2]) was 41.5% and the IC50 (Plasmodium falciparum [4]) was “Not Active”.
In the case of `CCOC(OCC)c1ccc(/C=N/NC(=O)CCN2CCN(c3ccnc4cc(Cl)ccc34)CC2)cc1`, the IC50 (Entamoeba histolytica [1]) is reported as > 100 µM and the inhibition at 1 µg/mL (Plasmodium falciparum [2]) is reported as 71.7%.
For `O=C(CCN1CCN(c2ccnc3cc(Cl)ccc23)CC1)N/N=C/c1ccc2c(c1)OCO2`, the IC50 (Entamoeba histolytica [1]) was > 100 µM and the inhibition at 1 µg/mL (Plasmodium falciparum [2]) was 27.8%.
`CCOc1ccc(/C=N/NC(=O)CCN2CCN(c3ccnc4cc(Cl)ccc34)CC2)cc1` gave an IC50 (Entamoeba histolytica [1]) of 12 µM and an inhibition at 1 µg/mL (Plasmodium falciparum [2]) of 14.9%.
With `O=C(CCN1CCN(c2ccnc3cc(Cl)ccc23)CC1)N/N=C/c1cccc(Cl)c1` the IC50 (Entamoeba histolytica [1]) was 7.7 µM, the inhibition at 1 µg/mL (Plasmodium falciparum [2]) was 97.3% and the IC50 [3] was > 100 µM.
In the case of `COc1cc(/C=N/NC(=O)CCN2CCN(c3ccnc4cc(Cl)ccc34)CC2)c(Br)c(OC)c1OC`, the IC50 (Entamoeba histolytica [1]) is reported as 3.7 µM, the inhibition at 1 µg/mL (Plasmodium falciparum [2]) is reported as 42.9% and the IC50 [3] is reported as 9.6 µM. The IC50 (Plasmodium falciparum [4]) was “Not Active”.
In the case of `Cc1ccc(/C=N/NC(=O)CCN2CCN(c3ccnc4cc(Cl)ccc34)CC2)cc1`, the IC50 (Entamoeba histolytica [1]) is reported as 8.1 µM and the inhibition at 1 µg/mL (Plasmodium falciparum [2]) is reported as 81.4%.
With `O=C(CCN1CCN(c2ccnc3cc(Cl)ccc23)CC1)N/N=C/c1ccc(O)cc1` the IC50 (Entamoeba histolytica [1]) was > 100 µM and the inhibition at 1 µg/mL (Plasmodium falciparum [2]) was 80.6%.
For `COc1cc(/C=N/NC(=O)CCN2CCN(c3ccnc4cc(Cl)ccc34)CC2)cc(OC)c1OC`, the IC50 (Entamoeba histolytica [1]) was 12.4 µM and the inhibition at 1 µg/mL (Plasmodium falciparum [2]) was 47.4%.
`COc1ccc(/C=N/NC(=O)CCN2CCN(c3ccnc4cc(Cl)ccc34)CC2)cc1` showed an IC50 (Entamoeba histolytica [1]) of 19.7 µM and an inhibition at 1 µg/mL (Plasmodium falciparum [2]) of 43%.
In the case of `COc1ccc(OC)c(/C=N/NC(=O)CCN2CCN(c3ccnc4cc(Cl)ccc34)CC2)c1`, the IC50 (Entamoeba histolytica [1]) is reported as 8.2 µM and the inhibition at 1 µg/mL (Plasmodium falciparum [2]) is reported as 37.4%.
In the case of `O=C(CCN1CCN(c2ccnc3cc(Cl)ccc23)CC1)N/N=C/c1cc(Br)c(O)c(Br)c1`, the IC50 (Entamoeba histolytica [1]) is reported as 6.6 µM, the inhibition at 1 µg/mL (Plasmodium falciparum [2]) is reported as 28% and the IC50 (Plasmodium falciparum [4]) is reported as “Not Active”.
For `O=C(CCN1CCN(c2ccnc3cc(Cl)ccc23)CC1)N/N=C/c1ccccc1`, the IC50 (Entamoeba histolytica [1]) was 6.6 µM, the inhibition at 1 µg/mL (Plasmodium falciparum [2]) was 93.3% and the IC50 [3] was 0.3 µM. For the same molecule, the IC50 (Plasmodium falciparum [4]; [10]) was 0.2 µM.

Reference: ChEMBL document CHEMBL3124919, “Design, synthesis and biological evaluation of 3-[4-(7-chloro-quinolin-4-yl)-piperazin-1-yl]-propionic acid hydrazones as antiprotozoal agents” (Eur J Med Chem, 2014)
